Experimental data: US20230416703A1, “Methods and Materials for Producing Polyols and Electron Rich Compounds” (THE TRUSTEES OF PRINCETON UNIVERSITY, priority 2019, published 2023)
Entries after “also recorded” stand apart in the source; their conditions may differ. Each block holds one compound with its values, some of them ahead of it.

Legend:
[1] = molecular target: T1, Pyp1 (Saccharomyces cerevisiae, UniProt P53981); assay: Phosphatase activity of purified recombinant Pyp1 against phosphorylated substrates; assay type: biochemical, S. cerevisiae; conditions: incubation with purified Pyp1, 0.5 mM substrate
T1 construct: made in house; host or cells: E. coli BL21 (DE3) Gold
T1 sequence (P53981 whole entry): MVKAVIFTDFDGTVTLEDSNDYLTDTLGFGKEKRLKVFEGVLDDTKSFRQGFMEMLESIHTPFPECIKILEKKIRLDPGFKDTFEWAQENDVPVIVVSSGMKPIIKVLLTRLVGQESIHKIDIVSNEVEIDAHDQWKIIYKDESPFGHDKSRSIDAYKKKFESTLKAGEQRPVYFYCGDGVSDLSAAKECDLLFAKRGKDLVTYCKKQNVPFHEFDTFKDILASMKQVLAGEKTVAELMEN
Protocol: Purified Pyp1 phosphatase activity was assayed in the presence of 0.5 mM substrate and 5 mM Mg^2+ (pH=7.0, 30° C.) by monitoring the appearance of free phosphate or the polyol. The y axis represents specific phosphatase activity (μmol product made per mg of protein per minute) (mean±range of N=2 replicates).
Purified Pyp1's phosphatase activity was assayed against 0.5 mM ribitol-5P by LC-MS. […] (FIG. 10B). Pyp1's D-polyol phosphatase activity was measured in the presence of 0.5 mM substrate and 5 mM Mg^2+ (pH=7.0, 30° C.) by monitoring the appearance of phosphate or the polyol. The y-axis represents specific phosphatase activity (moles product per min per mg of protein) (mean±range, N=2).
In the initial screening of Pyp1's phosphatase activity, the gene encoding Pyp1 was amplified by PCR using S. cerevisiae genomic DNA. The amplified fragments were cloned into a modified pET15b vector (Novagen, Darmstadt, Germany) and overexpressed in the E. coli BL21(DE3) Gold strain (Stratagene, La Jolla, California) as previously described by Kuznetsova et al., J Biol Chem 2010, 285, 21049. The recombinant proteins were purified using metal ion affinity chromatography on nickel affinity resin (Qiagen, Hilden, Germany) to high homogeneity and stored at −80° C. Purified Pyp1 was screened for the presence of phosphatase activity against the general phosphatase substrate p-nitrophenyl phosphate (pNPP) and 90 phosphorylated metabolites as described previously by Kuznetsova et al., J Biol Chem 2006, 281, 36149. […]
Briefly, the gene encoding Pyp1 was amplified by PCR using S. cerevisiae genomic DNA. The amplified fragments were cloned into a modified pET15b vector (Novagen, Darmstadt, Germany) and overexpressed in the E. coli BL21 (DE3) Gold strain (Stratagene, La Jolla, California) as previously described (Kuznetsova et al., 2010). The recombinant protein was purified using metal ion affinity chromatography on nickel chelate resin (Qiagen, Hilden, Germany) to high homogeneity and stored at −80° C. Purified Pyp1 was then screened for phosphatase activity as described previously (Kuznetsova et al., 2006).

[2] = molecular target: T2, yeast Pgi1 (phosphoglucose isomerase) (Saccharomyces cerevisiae, UniProt P12709); assay: Inhibition of purified Pgi1 (phosphoglucose isomerase) activity, LC/MS detection of glucose-6-phosphate; assay type: biochemical; conditions: for Inhibition of Pgi1 (in words): 0.6 mM fructose-6-phosphate, 0.05-5 mM polyol phosphate
T2 construct: purchased Sigma Aldrich (St. Louis, MO)
T2 sequence (P12709 2-554 limits assumed): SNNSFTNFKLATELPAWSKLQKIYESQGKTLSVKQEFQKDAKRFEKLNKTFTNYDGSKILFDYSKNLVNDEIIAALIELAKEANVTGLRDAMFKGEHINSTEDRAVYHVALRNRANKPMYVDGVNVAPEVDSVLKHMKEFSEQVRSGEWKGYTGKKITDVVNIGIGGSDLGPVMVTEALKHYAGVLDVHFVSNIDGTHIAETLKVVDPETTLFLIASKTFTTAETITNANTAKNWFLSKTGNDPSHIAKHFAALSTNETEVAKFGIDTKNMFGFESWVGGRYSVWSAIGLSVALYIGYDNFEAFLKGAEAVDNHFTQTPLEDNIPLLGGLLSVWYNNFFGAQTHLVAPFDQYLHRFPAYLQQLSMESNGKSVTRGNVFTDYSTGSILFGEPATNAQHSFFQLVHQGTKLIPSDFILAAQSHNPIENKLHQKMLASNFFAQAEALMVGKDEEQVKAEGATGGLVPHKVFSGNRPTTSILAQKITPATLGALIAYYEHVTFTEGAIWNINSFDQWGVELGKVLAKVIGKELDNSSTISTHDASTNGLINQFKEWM
Protocol: Purified Pgi1's activity was assayed in the presence of 0.6 mM fructose-6-phosphate, 5 mM Mg^2+ (pH=7.0, 30° C.) and a range of 0.05-5 mM of sorbitol-6P or ribitol-5P by monitoring the appearance of glucose-6-phosphate. The y axis represents relative Pgi1 activity (mean±range of N=2 replicates).
FIGS. 13A-13C show polyol phosphates inhibit phosphoglucose isomerase in vitro and in growing yeast. (FIG. 13A). Activity of the purified Pgi1 was assayed in the presence of 0.6 mM fructose-6-phosphate (substrate), 5 mM Mg2+ (pH=7.0, 30° C.) and a range of 0.05-5 mM of sorbitol-6P or ribitol-5P by monitoring the appearance of glucose-6-phosphate. The x-axis represents polyol phosphate concentration and the y-axis represents relative Pgi1 activity (mean±range of N=2 replicates). (FIG. 13B). […] This experiment is used to define a characteristic low-Pgi metabolome. (FIG. 13C). Metabolome profiling of pyp1Δ (dark red) and wild type (blue) cells at t=1 h after switching from trehalose+ribitol to glucose+ribitol.
For the determination of IC50 of sorbitol-6-phosphate and ribitol-5-phosphate on phosphoglucose isomerase, yeast Pgi1 was purchased from Sigma Aldrich (St. Louis, MO). Phosphoglucose isomerase activity was determined by adding fructose-6-phosphate and monitoring the appearance of glucose-6-phosphate using LC/MS. It was determined that the LC/MS-based assay is consistently more sensitive and accurate than the colometric-based assay, which involves coupling the Pgi1 activity with glucose-6-phosphate dehydrogenase activity and monitoring the appearance of NADH. The reaction mixture contained 100 mM Tris-HCl at a pH of 8.0, 10 mM MgCl2, 0.6 mM fructose-6-phosphate (concentration in cells grown exponentially on glucose), and a range of sorbitol-6-phosphate and ribitol-5-phosphate concentrations (0.05 to 5 mM). The resulting data were again fitted to the Hill equation using the GraphPad Prism Software.
To measure the inhibition of Pgi by sorbitol-6-phosphate and ribitol-5-phosphate, yeast Pgi1 was purchased from Sigma Aldrich (St. Louis, MO). Phosphoglucose isomerase activity was determined by adding fructose-6-phosphate and monitoring the appearance of glucose-6-phosphate using LC/MS. We found such LC/MS based assay is consistently more sensitive and accurate than the more typical colorimetric-based assay, which involves coupling the Pgi1 activity with glucose-6-phosphate dehydrogenase activity and monitoring the appearance of NADH. The reaction mixture contained 100 mM Tris-HCl at pH 8.0, 10 mM MgCl2, 0.6 mM fructose-6-phosphate (the physiological concentration in cells grown exponentially on glucose), and a range of sorbitol-6-phosphate and ribitol-5-phosphate concentrations (0.05 to 5 mM). The resulting data were fitted to the Hill equation using the GraphPad Prism Software.

[3] = tested on: pyp1Δ cells; assay: Growth rate of pyp1Δ yeast in the presence of ribitol; assay type: cell-based, Saccharomyces cerevisiae
Description: (§1) Wild type yeast and pyp1Δ cells growing on 1% trehalose in the absence or presence of 1% ribitol (upper panel) were switched to media with trehalose substituted by 1% glucose (lower panel). The y axis represents ratio of growth rates (mean±range of N=2 replicates) of cells growing in the presence of ribitol vs. cells growing in the absence of ribitol. […] The x axis represents hours after the switch and the y axis represents absolute intracellular concentration (mean±range of N=2 replicates). […] The x axis represents different growth rates and the y axis represents relative expression level of PYP1. […] The y axis represents absolute intracellular concentration, except for the panel displaying the NADPH/NADP^+ ratio (mean±range of N=2 replicates).
(§2) (FIG. 12A). Growth of wild type and pyp1Δ yeast on sorbitol. Yeast cells grown on YPD medium were switched to minimal media containing 2% sorbitol as the carbon source. The x-axis represents days after the switch and the y-axis represents optical density (A600). (FIG. 12B). Absolute concentration of sorbitol-6-phosphate in wild type and pyp1Δ cells in the experiment shown in (A). The x-axis represents days after the switch and the y-axis represents absolute intracellular concentration (mean±range, N=2). (FIG. 12C). Growth of wild type and pyp1Δ cells on glycerol and mannitol. […]

[4] = tested on: wild type yeast cells; assay: Growth rate of wild type yeast in the presence of ribitol; assay type: cell-based, Saccharomyces cerevisiae; conditions: 1% trehalose +/- 1% ribitol
Description: as §1, §2

- Pyp1 phosphatase activity on substrate (in words) [1]: hydrolysis
SMILES: O=P(O)(O)OCC(O)CO (racemic) [racemic glycerol-3P]

- Pyp1 phosphatase activity on substrate (in words) [1]: No detectable phosphatase activity
- Pyp1 phosphatase activity on substrate (in words) ([1]; listed as octulose-8P): no detectable phosphatase activity
SMILES: O=C(CO)[C@@H](O)[C@H](O)[C@H](O)[C@H](O)[C@H](O)COP(=O)(O)O [O8P, D-Glycero-D-Altro-Octulose-8-phosphate]

- Pyp1 phosphatase activity on substrate (in words) [1]: hydrolysis
SMILES: O=C[C@H](O)[C@H](O)COP(=O)(O)O [erythrose-4P]

- Pyp1 phosphatase activity on substrate (in words) [1]: depletion
- Pyp1 phosphatase activity on substrate (in words) ([1]; listed as Glycerol-1-phosphate): in vitro substrate
SMILES: O=P(O)(O)OCC(O)CO [glycerol-1P, D-glycerol-3-phosphate]

- Pyp1 phosphatase activity on substrate (in words) ([1]; listed as (L)-glycerol-3P): very low activity
SMILES: O=P(O)(O)OC[C@H](O)CO [glycerol-3P, L-glycerol-3-phosphate]

SMILES: O=P(O)(O)OC[C@@H](O)[C@@H](O)[C@@H](O)CO [ribitol-5P, ribitol-5-phosphate]
- Inhibition of Pgi1 (in words) [2]: did not inhibit Pgi1 as strongly as sorbitol-6P; also recorded: less potently
- Pyp1 phosphatase activity on substrate (in words) [1]: depletion
- Lower growth rate in pyp1Δ cells after carbon upshift ([3]; switched from trehalose + ribitol to glucose plus ribitol): ~50%

SMILES: OC[C@@H](O)[C@@H](O)[C@@H](O)CO [ribitol]
- Effect on growth rate of wild type cells growing on trehalose [4]: does not affect the growth rate; also recorded: without impacting growth rate
- Decrease of the growth rate of pyp1Δ cells ([3]; 1% trehalose +/- 1% ribitol): ~20%

- Inhibition of Pgi1 (in words) [2]: inhibit
- inhibition at 1000 µM ([2]; 1 mM sorbitol-6P added, read-out: Pgi1 activity inhibited): > 85%
- IC50 ([2]; purified Pgi1, 0.6 mM fructose-6-phosphate, inhibitor range 0.05-5 mM): ~50 µM
- Pyp1 phosphatase activity on substrate (in words) [1]: depletion; also recorded: hydrolysis
SMILES: O=P(O)(O)OC[C@@H](O)[C@@H](O)[C@H](O)[C@@H](O)CO [sorbitol-6P, sorbitol-6-phosphate]
